# Reference: PubChem BioAssay (NCI)
#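 Growth conditions: 96-well plates. Treatment: test compound, 48 hours, 5 concentrations. Analysis: linear interpolation between bracketing concentrations; unreached endpoints set to highest concentration. TGI is the concentration that stops growth completely.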
# Tests used:
# Experiment in all cases: NCI-60 cell line screen, 48 h
# HS 578T breast = tested on: HS 578T breast
# UACC-257 melanoma = tested on: UACC-257 melanoma
# SNB-19 CNS = tested on: SNB-19 CNS
# BT-549 breast = tested on: BT-549 breast
# SK-MEL-28 melanoma = tested on: SK-MEL-28 melanoma
# LOX IMVI melanoma = tested on: LOX IMVI melanoma
# NCI-H23 lung = tested on: NCI-H23 lung
# OVCAR-8 ovarian = tested on: OVCAR-8 ovarian
# UACC-62 melanoma = tested on: UACC-62 melanoma
# A498 renal = tested on: A498 renal
SMILES,TGI (HS 578T breast),TGI (UACC-257 melanoma),TGI (SNB-19 CNS),TGI (BT-549 breast),TGI (SK-MEL-28 melanoma),TGI (LOX IMVI melanoma),TGI (NCI-H23 lung),TGI (OVCAR-8 ovarian),TGI (UACC-62 melanoma),TGI (A498 renal)
CC(C)=NN/C(=N\S(=O)(=O)c1ccc(Oc2cccc(Cl)c2C#N)cc1)Nc1ccc(Cl)cc1,> 100 µM,> 100 µM,> 100 µM,> 100 µM,> 100 µM,> 100 µM,> 100 µM,> 100 µM,> 100 µM,–
COc1cccc(CCN2CCN(CCCc3ccccc3)CC2)c1,> 100 µM,> 100 µM,> 100 µM,> 100 µM,> 100 µM,> 100 µM,> 100 µM,> 100 µM,> 100 µM,> 100 µM
NCCCN(CCCN(C(=O)Nc1ccccc1)c1ccccc1)C(=O)Nc1ccccc1,> 100 µM,43.1 µM,> 100 µM,> 100 µM,34.1 µM,56.6 µM,> 100 µM,> 100 µM,58 µM,> 100 µM
CSCCC(N)C(=O)NCCNc1ccc(NCCNC(=O)C(N)CCSC)c2c1C(=O)c1ccccc1C2=O (configuration not stated),6.85 µM,12.7 µM,5.81 µM,2.93 µM,3.17 µM,2.54 µM,2.32 µM,4.17 µM,2.51 µM,3.83 µM
NC(=O)c1cccc([N+](=O)[O-])c1,–,> 100 µM,> 100 µM,–,> 100 µM,> 100 µM,> 100 µM,> 100 µM,> 100 µM,> 100 µM
CCCCC(=O)c1c(O)nc2sccn2c1=O,> 10 µM,–,> 10 µM,–,> 10 µM,> 10 µM,> 10 µM,> 10 µM,> 10 µM,> 10 µM
COc1cc2ccc(=O)oc2cc1O,–,270 µM,432 µM,–,> 625 µM,> 625 µM,> 414 µM,424 µM,161 µM,208 µM
CCCCOC(=O)C(NC(C(=O)OCCCC)c1cc(C(C)(C)C)c(O)c(C(C)(C)C)c1)c1cc(C(C)(C)C)c(O)c(C(C)(C)C)c1 (configuration not stated),> 100 µM,> 100 µM,> 100 µM,> 100 µM,> 100 µM,> 100 µM,> 100 µM,> 100 µM,> 100 µM,> 100 µM
ClCCCc1ccccc1C1=NCCc2ccccc21,> 100 µM,> 100 µM,> 100 µM,> 100 µM,> 100 µM,–,> 100 µM,> 100 µM,> 100 µM,> 100 µM
CC1(C)N/C(=C\C=O)C(C)(C)N1O,> 100 µM,> 100 µM,> 100 µM,–,> 100 µM,> 100 µM,> 100 µM,> 100 µM,> 100 µM,–
CO/N=C1\CC(NC(=O)CNC(=O)OC(C)(C)C)c2ccsc21 (configuration not stated),> 100 µM,> 100 µM,–,> 100 µM,> 100 µM,> 100 µM,> 100 µM,> 100 µM,> 100 µM,> 100 µM
COC(OC)[C@@H]1OC[C@H](n2cnc3c(N)ncnc32)[C@H]1O,> 100 µM,> 100 µM,> 100 µM,> 100 µM,> 100 µM,> 100 µM,> 100 µM,–,> 100 µM,> 100 µM
Cc1cc(-c2nc3cc(F)ccc3s2)ccc1NC(=O)[C@@H](N)CCCCN,24.7 µM,13.3 µM,28.9 µM,26.9 µM,34.6 µM,3.62 µM,4.93 µM,11.2 µM,23.4 µM,23.9 µM
OC1(c2ccccc2)CCN(Cc2c[nH]c3ccccc23)CC1,> 100 µM,40.4 µM,> 100 µM,> 100 µM,56.9 µM,> 100 µM,> 100 µM,> 100 µM,> 100 µM,> 100 µM
Cc1ccc([S@](=O)c2occc2C=O)cc1,36.1 µM,26.3 µM,18 µM,25.5 µM,9.02 µM,3.93 µM,30.4 µM,25.4 µM,29.3 µM,32.3 µM
Cc1ccc(/C(O)=C/c2nc3ccccc3sc2=O)c(C)c1,> 100 µM,> 100 µM,> 100 µM,79.6 µM,> 100 µM,> 100 µM,> 100 µM,> 100 µM,> 100 µM,> 100 µM
CC1C(=O)N(c2ccccc2)NC12CCCc1ccccc12 (configuration not stated),> 100 µM,> 100 µM,> 100 µM,> 100 µM,> 100 µM,> 100 µM,> 100 µM,> 100 µM,> 100 µM,> 100 µM
COc1ccc(C2=Nc3cc(C)c(C)cc3NC(c3ccccc3)C2)cc1 (configuration not stated),> 100 µM,> 100 µM,> 100 µM,> 100 µM,> 100 µM,> 100 µM,> 100 µM,> 100 µM,> 100 µM,> 100 µM
COc1c(O)c(C=O)c2c(O)c(-c3c(C)cc4c(C(C)C)c(OC)c(O)c(C=O)c4c3O)c(C)cc2c1C(C)C,–,29 µM,16.5 µM,–,22.7 µM,–,13.2 µM,16.4 µM,29 µM,24.7 µM
CN(C)c1nc(N)nc(CS)n1,> 100 µM,> 100 µM,> 100 µM,> 100 µM,> 100 µM,> 100 µM,> 100 µM,> 100 µM,> 100 µM,> 100 µM
O=S(Nc1ccccc1)c1ccc(N2CCOCC2)cc1 (configuration not stated),> 100 µM,> 100 µM,> 100 µM,> 100 µM,> 100 µM,> 100 µM,> 100 µM,> 100 µM,99.3 µM,–
CSCSSC,> 100 µM,> 100 µM,> 100 µM,> 100 µM,> 100 µM,> 100 µM,> 100 µM,> 100 µM,> 100 µM,> 100 µM
C[n+]1cccc2c(=O)c3ccccc3oc21,> 100 µM,–,> 100 µM,–,> 100 µM,> 100 µM,> 100 µM,> 100 µM,> 100 µM,> 100 µM
